Reference: US20100004267A1, “LIQUID PREPARATION” (ASUBIO PHARMA CO., LTD., priority 2006, published 2010)

What was measured:
[1] = Examination of properties of SUN N8075 itself; format: physicochemical; conditions: pH around neutrality
[2] = Examination on two-component antioxidant sodium bisulfite/L-cysteine hydrochloride monohydrate (Test example 6); format: physicochemical
Procedure: According to the formulation of Tables 7 and 8, to 100-150 mL of purified water, sodium bisulfite (Japanese Pharmacopoeia; available from JUNSEI CHEMICAL), L-cysteine hydrochloride monohydrate (available from Nacalai Tesque), and SUN N8075 were added and dissolved in this order, and the volume was made precisely to 200 mL by addition of purified water.
After filtering under reduced pressure, the solution was bubbled with nitrogen gas for 5 minutes (not executed for the case “without nitrogen gas replacement”), and 20 mL of the solution was immediately filled into a brown ampule (Silicoat ampule, brown, 20 mL capacity, available from FUJI GLASS CO., LTD.) replaced with nitrogen gas (not executed for the case “without nitrogen gas replacement”), and then the ampule was sealed. Using autoclave (FLC-M09S30WZ, available from SAKURA SEIKI Co., Ltd.), autoclave sterilization was conducted in a setting condition: 121° C./24 minutes.
For each sample, insoluble foreign matters and odor were evaluated.
Evaluation of insoluble foreign matters was conducted using an appearance checker (under 1,000 Lux).
Also dissolved oxygen concentration in solution was measured.

[3] = sodium bisulfite 0.05% (0.1 g), L-cysteine HCl monohydrate 0.05 g (ratio 1/2), N2 done, dissolved oxygen 0.91 ppm
[4] = sodium bisulfite 0.05% (0.1 g), L-cysteine HCl monohydrate 0.1 g (ratio 1/1), N2 done, dissolved oxygen 0.88 ppm
[5] = sodium bisulfite 0.075% (0.15 g), L-cysteine HCl monohydrate 0.1 g (ratio 2/3), N2 done, dissolved oxygen 1.66 ppm
[6] = sodium bisulfite 0.075% (0.15 g), L-cysteine HCl monohydrate 0.5 g (ratio 1/1), N2 done, dissolved oxygen 0.97 ppm
[7] = sodium bisulfite 0.1% (0.2 g), L-cysteine HCl monohydrate 0.1 g (ratio 1/2), N2 done, dissolved oxygen 1.27 ppm
[8] = sodium bisulfite […] (0.05 g), L-cysteine HCl monohydrate 0.05 g (ratio 1/1), N2 done, dissolved oxygen 0.82 ppm

Cc1cc(OC[C@@H](O)CN2CCN(c3ccc(Cc4ccc(F)cc4)cc3)CC2)c(C)c(C)c1N [SUN N8075, (2S)-1-(4-amino-2,3,5-trimethylphenoxy)-3-{4-[4-(4-fluorobenzyl)phenyl]-1-piperazinyl}-2-propanol dimethane sulfonate]
Solubility [1]: very low
Amount of insoluble matters/after sterilization ([2]; sodium bisulfite 0.05% (0.1 g), L-cysteine HCl monohydrate 0.03 g (ratio 3/10), N2 done, dissolved oxygen 1.85 ppm): bit
Amount of insoluble matters/after sterilization [2, 3]: great
Odor/After sterilization [2, 3]: Sulfur-
Amount of insoluble matters/after sterilization [2, 4]: great
Odor/After sterilization [2, 4]: Sulfur-
Amount of insoluble matters/after sterilization ([2]; sodium bisulfite 0.05% (0.1 g), no L-cysteine HCl monohydrate, N2 done, dissolved oxygen 0.82 ppm): bit
Amount of insoluble matters/after sterilization ([2]; sodium bisulfite 0.075% (0.15 g), L-cysteine HCl monohydrate 0.05 g (ratio 1/3), N2 done, dissolved oxygen 1.39 ppm): Bit
Amount of insoluble matters/after sterilization [2, 5]: great
Odor/After sterilization [2, 5]: Sulfur-
Amount of insoluble matters/after sterilization [2, 6]: great
Odor/After sterilization [2, 6]: Sulfur-
Amount of insoluble matters/after sterilization ([2]; sodium bisulfite 0.075% (0.15 g), no L-cysteine HCl monohydrate, N2 done, dissolved oxygen 1.24 ppm): bit
Amount of insoluble matters/after sterilization [2, 7]: great
Odor/After sterilization [2, 7]: Sulfur
Amount of insoluble matters/after sterilization ([2]; sodium bisulfite 0.1% (0.2 g), no L-cysteine HCl monohydrate, N2 done, dissolved oxygen 1.39 ppm): bit
Amount of insoluble matters/after sterilization ([2]; sodium bisulfite 0.1% (0.2 g), no L-cysteine HCl monohydrate, N2 not done, dissolved oxygen 5.14 ppm): bit
Amount of insoluble matters/after sterilization ([2]; sodium bisulfite […] (0.05 g), L-cysteine HCl monohydrate 0.015 g (ratio 3/10), N2 done, dissolved oxygen 1.88 ppm): Bit
Amount of insoluble matters/after sterilization [2, 8]: great
Odor/After sterilization [2, 8]: Sulfur-
Amount of insoluble matters/after sterilization ([2]; sodium bisulfite […] (0.05 g), no L-cysteine HCl monohydrate, N2 done, dissolved oxygen 0.52 ppm): bit
